A short description of the data set: Percentage of dimers by gas chromatography over time, 1-MCP/butane 1:1 and negative control. It counts as physicochemical. The text has this:
1-MCP and butane was mixed in liquid form in 1:1 ratio (v/v). Then, the mixture was transferred into the glass container.
Table 18 and FIG. 11 (plot line with circular data points) show the percentage of dimers in the composition as measured by gas chromatography at various points over time. The dotted line is a trend line that extrapolates the 1-MCP/butane plot. A negative control containing only 1-MCP was used for comparison. Table 19 and FIG. 11 (plot line with square data points) show the percentage of dimers in the negative control as measured by gas chromatography at the same points over time that the composition was measured.

The record followed here is patent publication US20210235692A1, “Stable 1-Methylcyclopropene Compositions and Uses Thereof” (Fresh Inset S.A., priority 2020, published 2021).

For `CC1=CC1` [negative control, 1-methylcyclopropene], the “% of dimer” value by setting is: (time 1 h) 0.229%; (time 3.75 h) 0.401%; (time 25.75 h) 4.013%; (time 123.5 h) 49.588%.
